# Results published in publication PMC9608490, “Design, Synthesis, Crystal Structure, In Vitro and In Silico Evaluation of New N′-Benzylidene-4-tert-butylbenzohydrazide Derivatives as Potent Urease Inhibitors” (Molecules, 2022).
# Target: Jack bean urease (Canavalia ensiformis, UniProt P07374)
# Test: In vitro urease inhibition assay
# Assay type: biochemical
# Procedure: The measurement of urease inhibitory activity was carried out according to the literature method. The assay mixture containing 75 μL of Jack bean urease and 75 μL of tested compounds with various concentrations (dissolved in DMSO) was pre-incubated for 15 min on a 96-well assay plate. Acetohydroxamic acid was used as a reference. Then 75 μL of phosphate buffer at pH 6.8 containing phenol red (0.18 mmol·L^−1) and urea (400 mmol·L^−1) were added and incubated at room temperature. The reaction time required for enough ammonium carbonate to form to raise the pH phosphate buffer from 6.8 to 7.7 was measured by a microplate reader (560 nm), with the end-point being determined by the color change of the phenol-red indicator.
# Sequence of Jack bean urease (P07374 whole entry, looked up): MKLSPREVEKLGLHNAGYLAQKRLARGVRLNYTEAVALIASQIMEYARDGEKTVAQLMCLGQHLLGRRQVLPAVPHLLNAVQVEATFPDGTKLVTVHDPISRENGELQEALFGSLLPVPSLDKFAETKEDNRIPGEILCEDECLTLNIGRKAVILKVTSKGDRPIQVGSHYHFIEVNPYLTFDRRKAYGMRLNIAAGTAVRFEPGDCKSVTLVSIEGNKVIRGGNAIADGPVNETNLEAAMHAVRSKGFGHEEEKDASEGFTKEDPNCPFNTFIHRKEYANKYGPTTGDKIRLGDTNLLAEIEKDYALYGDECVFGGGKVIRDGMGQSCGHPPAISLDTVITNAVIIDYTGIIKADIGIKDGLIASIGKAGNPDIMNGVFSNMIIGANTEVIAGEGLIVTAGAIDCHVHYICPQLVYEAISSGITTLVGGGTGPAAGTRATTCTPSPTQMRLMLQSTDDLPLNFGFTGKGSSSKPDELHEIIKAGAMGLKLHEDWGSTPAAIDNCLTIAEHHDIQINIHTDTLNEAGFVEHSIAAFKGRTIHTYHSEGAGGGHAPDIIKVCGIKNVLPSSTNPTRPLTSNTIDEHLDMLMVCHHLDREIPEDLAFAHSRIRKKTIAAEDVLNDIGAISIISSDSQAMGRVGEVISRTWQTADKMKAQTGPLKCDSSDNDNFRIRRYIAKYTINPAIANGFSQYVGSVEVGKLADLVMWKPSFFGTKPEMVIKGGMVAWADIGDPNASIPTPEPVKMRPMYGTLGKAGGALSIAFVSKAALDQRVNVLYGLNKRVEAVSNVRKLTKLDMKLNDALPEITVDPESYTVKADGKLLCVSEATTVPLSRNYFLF
row,SMILES,IC50 [µM]
1,"CC(C)(C)c1ccc(C(=O)NN=Cc2ccc(Cl)cc2Cl)cc1 [Compound 15, 4-(Tert-butyl)-N′-(2,4-dichlorobenzylidene)benzohydrazide]",82.2 ± 7.43
2,"COc1cc(OC)c(C=NNC(=O)c2ccc(C(C)(C)C)cc2)c(OC)c1 [Compound 21, N′-(2,4,6-Trimethoxybenzylidene)-4-tert-butylbenzohydrazide]",71.3 ± 2.47
3,"COc1cc(C=NNC(=O)c2ccc(C(C)(C)C)cc2)cc(OC)c1OC [Compound 13, 4-(Tert-butyl)-N′-(3,4,5-trimethoxybenzylidene)benzohydrazide]",80.9 ± 7.43
4,"CC(C)(C)c1ccc(C(=O)NN=Cc2c3ccccc3cc3ccccc23)cc1 [Compound 6, N′-(Anthracen-9-ylmethylene)-4-(tert-butyl)benzohydrazide]",13.3 ± 0.58
5,"CC(C)(C)c1ccc(C(=O)NN=Cc2ccc(O)c(O)c2)cc1 [Compound 8, N′-(3,4-Dihydroxybenzylidene)-4-tert-butylbenzohydrazide]",80 ± 7.43
6,"CC(C)(C)c1ccc(C(=O)N/N=C/c2cc(C(C)(C)C)cc(C(C)(C)C)c2O)cc1 [Compound 26, 4-(t-But)-N′-(3,5-Di-tert-butyl-2-hydroxybenzylidene)benzohydrazide]",49.5 ± 12.7
7,CC(C)(C)c1ccc(C(=O)N/N=C/c2ccc(Cl)c(O)c2Cl)cc1 [Compound 22],38.6 ± 11.5
8,"CCOc1ccc(C=NNC(=O)c2ccc(C(C)(C)C)cc2)c(OC)c1 [Compound 11, 4-(Tert-butyl)-N′-(4-ethoxy-2-methoxybenzylidene)benzohydrazide]",63.5 ± 2.97
9,"COc1ccc(/C=N/NC(=O)c2ccc(C(C)(C)C)cc2)cc1OC [Compound 25, 4-(t-But)-N′-(3,4-Dimethoxybenzylidene)benzohydrazide]",13.4 ± 0.33
10,"CC(C)(C)c1ccc(C(=O)N/N=C/c2ccc(O)cc2)cc1 [Compound 20, 4-(t-But)-N′-(4-Hydroxybenzylidene)benzohydrazide]",51.4 ± 11.5
11,"COc1cccc(OC)c1C=NNC(=O)c1ccc(C(C)(C)C)cc1 [Compound 19, 4-(Tert-butyl)-N′-(2,6-dimethoxybenzylidene)benzohydrazide]",67.5 ± 4.16
12,"COc1ccc(Br)cc1C=NNC(=O)c1ccc(C(C)(C)C)cc1 [Compound 7, N′-(5-Bromo-2-methoxybenzylidene)-4-(t-But)benzohydrazide]",64.5 ± 3.97
13,"CC(C)(C)c1ccc(C(=O)N/N=C/c2ccccc2O)cc1 [Compound 24, 4-(t-But)-N′-(2-Hydroxybenzylidene)benzohydrazide]",37.5 ± 12.5
14,"COc1cc(C=NNC(=O)c2ccc(C(C)(C)C)cc2)ccc1F [Compound 4, 4-(Tert-butyl)-N′-(4-fluoro-3-methoxybenzylidene)benzohydrazide]",88.8 ± 7.71
15,"CC(C)(C)c1ccc(C(=O)NN=Cc2cc(Cl)cc(Cl)c2O)cc1 [Compound 17, N′-(3,5-Dichloro-2-hydroxybenzylidene)-4-tert-butylbenzohydrazide]",27.5 ± 1.65
16,"COc1ccc(C=NNC(=O)c2ccc(C(C)(C)C)cc2)c(OC)c1OC [Compound 9, N′-(2,3,4-Trimethoxybenzylidene)-4-tert-butylbenzohydrazide]",63.5 ± 3.97
17,"CC(C)(C)c1ccc(C(=O)NN=Cc2cc([N+](=O)[O-])ccc2Cl)cc1 [Compound 10, 4-(Tert-butyl)-N′-(2-chloro-5-nitrobenzylidene)benzohydrazide]",63.5 ± 3.97
18,"COc1cccc(/C=N/NC(=O)c2ccc(C(C)(C)C)cc2)c1O [Compound 5, 4-(t-But)-N′-(2-Hydroxy-3-methoxybenzylidene)benzohydrazide]",56.6 ± 3.18
19,"CC(C)(C)c1ccc(C(=O)NN=Cc2cc(C(C)(C)C)c(O)c(C(C)(C)C)c2)cc1 [Compound 16, 4-(Tert-butyl)-N′-(3,5-di-tert-butyl-4-hydroxybenzylidene)benzohydrazide]",79 ± 7.53
20,"CC(C)(C)c1ccc(C(=O)NN=Cc2ccc([N+](=O)[O-])cc2)cc1 [Compound 18, N′-(4-Nitrobenzylidene)-4-tert-butylbenzohydrazide]",66.1 ± 1.79
21,"CN(C)c1ccc(C=NNC(=O)c2ccc(C(C)(C)C)cc2)cc1 [Compound 14, 4-(Tert-butyl)-N′-(4-(dimethylamino)benzylidene)benzohydrazide]",81.2 ± 7.4
22,"CC(C)(C)c1ccc(C(=O)NN=Cc2cccc(O)c2)cc1 [Compound 12, 4-(Tert-butyl)-N′-(3-hydroxybenzylidene)benzohydrazide]",39.6 ± 11.5
23,COc1cc(C=NNC(=O)c2ccc(C(C)(C)C)cc2)ccc1O [Compound 23],252 ± 6.82
